Data published in US7001983B1, “Antipathogenic synthetic peptides and compositions comprising them” (priority 1997, dated 2006).

Tests used:
Format in all cases: cell-based
Bacillus megaterium Bm11 = settings: 100% inhibition of growth after 18–20 h
Escherichia coli D21 = settings: 100% inhibition of growth after 18–20 h
[1] = test system: human red blood cells (hRBC); experiment: Hemolysis of human red blood cells; settings: hRBC, 50 μM peptide, 30 min at 37° C.
Protocol: (ix) Hemolysis of human red blood cells. The peptides were tested for their hemolytic activities against human red blood cells (hRBC). Fresh hRBC with EDTA were rinsed 3 times with PBS (35 mM phosphate buffer/0.15 M NaCl, pH 7.3) by centrifugation for 10 min at 800 g and resuspended in PBS. Peptides dissolved in PBS were then added to 50 μL of a solution of the stock hRBC in PBS to reach a final volume of 100 μL (final erythrocyte concentration, 5% v/v). The resulting suspension was incubated under agitation for 30 min at 37° C. The samples were then centrifuged at 800 g for 10 min. Release of hemoglobin was monitored by measuring the absorbance of the supernatant at 540 nm. Controls for zero hemolysis (blank) and 100% hemolysis consisted of hRBC suspended in PBS and Triton 1%, respectively.

SMILES | Minimal Inhibitory Concentration B. megaterium (Bm11) (Bacillus megaterium Bm11) [µM] | Minimal Inhibitory Concentration E. coli (D21) (Escherichia coli D21) [µM] | % hemolysis at 50 μM peptide [1] [%]
CC[C@H](C)[C@H](NC(=O)[C@H](CCCCN)NC(=O)[C@@H]1CCCN1C(=O)[C@@H](NC(=O)[C@H](CC(C)C)NC(=O)[C@H](C)NC(=O)[C@H](Cc1ccccc1)NC(=O)[C@H](Cc1ccccc1)NC(=O)CN)[C@@H](C)CC)C(=O)N[C@H](C(=O)N[C@@H](CO)C(=O)N[C@@H](CO)C(=O)N1CCC[C@@H]1C(=O)N[C@@H](CC(C)C)C(=O)N[C@@H](Cc1ccccc1)C(=O)N[C@@H](CCCCN)C(=O)N[C@H](C(=O)N[C@@H](CC(C)C)C(=O)N[C@@H](CC(C)C)C(=O)N[C@@H](CO)C(=O)N[C@@H](C)C(=O)N[C@H](C(=O)NCC(=O)N[C@@H](CO)C(=O)N[C@@H](C)C(=O)N[C@@H](CC(C)C)C(=O)N[C@@H](CO)C(=O)N[C@@H](CO)C(=O)N[C@@H](CO)C(=O)NCC(=O)NCC(=O)N[C@@H](CCC(N)=O)C(=O)N[C@@H](CCC(=O)NCCN)C(=O)NCCN)C(C)C)[C@@H](C)O)[C@@H](C)CC [Peptide 9, [D]P^13-TApar] | 1.5 | 3 | 83
CC[C@H](C)[C@H](NC(=O)[C@H](CCCCN)NC(=O)[C@@H]1CCCN1C(=O)[C@@H](NC(=O)[C@@H](CC(C)C)NC(=O)[C@H](C)NC(=O)[C@H](Cc1ccccc1)NC(=O)[C@H](Cc1ccccc1)NC(=O)CN)[C@@H](C)CC)C(=O)N[C@H](C(=O)N[C@@H](CO)C(=O)N[C@@H](CO)C(=O)N1CCC[C@H]1C(=O)N[C@@H](CC(C)C)C(=O)N[C@@H](Cc1ccccc1)C(=O)N[C@@H](CCCCN)C(=O)N[C@H](C(=O)N[C@@H](CC(C)C)C(=O)N[C@H](CC(C)C)C(=O)N[C@@H](CO)C(=O)N[C@@H](C)C(=O)N[C@H](C(=O)NCC(=O)N[C@@H](CO)C(=O)N[C@@H](C)C(=O)N[C@@H](CC(C)C)C(=O)N[C@@H](CO)C(=O)N[C@@H](CO)C(=O)N[C@@H](CO)C(=O)NCC(=O)NCC(=O)N[C@@H](CCC(N)=O)C(=O)N[C@@H](CCC(=O)NCCN)C(=O)NCCN)C(C)C)[C@@H](C)O)[C@@H](C)CC [Peptide 10, [D]L^5L^19-TApar] | 1.3 | 3 | 56
CC[C@H](C)[C@H](NC(=O)[C@H](CCCCN)NC(=O)[C@H]1CCCN1C(=O)[C@@H](NC(=O)[C@H](CC(C)C)NC(=O)[C@H](C)NC(=O)[C@H](Cc1ccccc1)NC(=O)[C@H](Cc1ccccc1)NC(=O)CN)[C@@H](C)CC)C(=O)N[C@H](C(=O)N[C@@H](CO)C(=O)N[C@@H](CO)C(=O)N1CCC[C@H]1C(=O)N[C@@H](CC(C)C)C(=O)N[C@@H](Cc1ccccc1)C(=O)N[C@@H](CCCCN)C(=O)N[C@H](C(=O)N[C@@H](CC(C)C)C(=O)N[C@H](CC(C)C)C(=O)N[C@@H](CO)C(=O)N[C@@H](C)C(=O)N[C@H](C(=O)NCC(=O)N[C@@H](CO)C(=O)N[C@@H](C)C(=O)N[C@@H](CC(C)C)C(=O)N[C@@H](CO)C(=O)N[C@@H](CO)C(=O)N[C@@H](CO)C(=O)NCC(=O)NCC(=O)N[C@@H](CCC(N)=O)C(=O)N[C@@H](CCC(=O)NCCN)C(=O)NCCN)C(C)C)[C@@H](C)O)[C@@H](C)CC [Peptide 11, [D]P^7L^19-TApar] | 1.5 | 3 | 82
CC[C@H](C)[C@H](NC(=O)[C@H](CCCCN)NC(=O)[C@H]1CCCN1C(=O)[C@@H](NC(=O)[C@H](CC(C)C)NC(=O)[C@H](C)NC(=O)[C@H](Cc1ccccc1)NC(=O)[C@H](Cc1ccccc1)NC(=O)CN)[C@@H](C)CC)C(=O)N[C@H](C(=O)N[C@@H](CO)C(=O)N[C@@H](CO)C(=O)N1CCC[C@H]1C(=O)N[C@@H](CC(C)C)C(=O)N[C@@H](Cc1ccccc1)C(=O)N[C@@H](CCCCN)C(=O)N[C@H](C(=O)N[C@@H](CC(C)C)C(=O)N[C@@H](CC(C)C)C(=O)N[C@@H](CO)C(=O)N[C@@H](C)C(=O)N[C@H](C(=O)NCCN)C(C)C)[C@@H](C)O)[C@@H](C)CC [Peptide 17, [D]P^7[1-22]-TApar] | 1 | 10 | 17
